What was measured:
Format in all cases: cell-based
Kv7.4 = target: T1, Kv7.4 (Homo sapiens, UniProt P56696); experiment: […] flux in transfected CHO cells; two-electrode voltage clamp in Xenopus oocytes; W242L loss of sensitivity
T1 construct: gene KCNQ4
T1 sequence (P56696 1-695): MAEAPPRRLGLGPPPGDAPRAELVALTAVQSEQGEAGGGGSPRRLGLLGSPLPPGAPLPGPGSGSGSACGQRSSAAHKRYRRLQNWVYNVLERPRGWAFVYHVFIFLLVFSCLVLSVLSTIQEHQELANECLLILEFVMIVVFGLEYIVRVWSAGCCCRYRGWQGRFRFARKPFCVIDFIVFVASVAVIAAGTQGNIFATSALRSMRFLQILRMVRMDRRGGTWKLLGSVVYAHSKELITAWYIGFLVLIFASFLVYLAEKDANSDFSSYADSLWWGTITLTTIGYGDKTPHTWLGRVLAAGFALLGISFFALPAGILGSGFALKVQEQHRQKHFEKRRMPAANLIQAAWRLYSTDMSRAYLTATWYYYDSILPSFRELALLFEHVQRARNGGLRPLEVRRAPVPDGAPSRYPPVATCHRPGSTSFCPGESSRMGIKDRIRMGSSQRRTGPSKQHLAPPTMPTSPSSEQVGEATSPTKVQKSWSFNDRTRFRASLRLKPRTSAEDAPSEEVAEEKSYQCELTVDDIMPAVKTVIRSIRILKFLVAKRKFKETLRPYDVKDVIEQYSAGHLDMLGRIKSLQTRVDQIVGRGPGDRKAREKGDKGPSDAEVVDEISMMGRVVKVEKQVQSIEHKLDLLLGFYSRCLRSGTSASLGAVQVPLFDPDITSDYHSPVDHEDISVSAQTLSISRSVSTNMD

Kv7.1 = target: T2, Kv7.1 (Homo sapiens, UniProt P51787); experiment: two-electrode voltage clamp in Xenopus oocytes, […]; weak inhibition; conditions: read-out: % of control current at +40 mV (10 μM)
T2 construct: gene KCNQ1
T2 sequence (P51787 1-676): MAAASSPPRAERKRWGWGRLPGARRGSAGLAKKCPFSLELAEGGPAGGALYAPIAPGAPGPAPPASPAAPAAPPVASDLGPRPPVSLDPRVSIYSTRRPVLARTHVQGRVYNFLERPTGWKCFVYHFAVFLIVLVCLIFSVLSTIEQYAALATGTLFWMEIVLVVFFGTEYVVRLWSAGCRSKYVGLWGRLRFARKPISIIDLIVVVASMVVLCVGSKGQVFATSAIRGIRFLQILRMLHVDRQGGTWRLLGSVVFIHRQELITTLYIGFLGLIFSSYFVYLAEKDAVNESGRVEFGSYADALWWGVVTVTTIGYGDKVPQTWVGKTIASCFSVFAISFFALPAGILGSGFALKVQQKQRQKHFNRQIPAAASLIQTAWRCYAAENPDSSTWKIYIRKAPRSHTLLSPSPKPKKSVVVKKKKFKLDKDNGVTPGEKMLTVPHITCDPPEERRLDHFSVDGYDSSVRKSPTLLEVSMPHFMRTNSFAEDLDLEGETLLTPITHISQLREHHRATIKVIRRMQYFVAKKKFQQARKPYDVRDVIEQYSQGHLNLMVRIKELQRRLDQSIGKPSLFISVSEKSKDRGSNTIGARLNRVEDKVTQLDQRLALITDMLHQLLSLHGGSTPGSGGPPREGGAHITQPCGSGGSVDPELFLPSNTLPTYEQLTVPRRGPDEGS

Kv7.2-W236L = target: T3, Kv7.2-W236L (Homo sapiens, UniProt O43526, W236L); experiment: […] flux in transfected CHO cells; two-electrode voltage clamp in Xenopus oocytes (inhibition)
T3 construct: gene KCNQ2

Kv7.2 = target: T4, Kv7.2 (Homo sapiens, UniProt O43526); experiment: […] flux in transfected CHO cells; two-electrode voltage clamp in Xenopus oocytes
T4 construct: gene KCNQ2

Kv7.5 = target: T5, Kv7.5 (Homo sapiens, UniProt Q9NR82); experiment: two-electrode voltage clamp in Xenopus oocytes, […]; current […] of control at +[…] mV; conditions: read-out: % of control current at +40 mV (10 μM)
T5 construct: gene KCNQ5
T5 sequence (Q9NR82 whole entry): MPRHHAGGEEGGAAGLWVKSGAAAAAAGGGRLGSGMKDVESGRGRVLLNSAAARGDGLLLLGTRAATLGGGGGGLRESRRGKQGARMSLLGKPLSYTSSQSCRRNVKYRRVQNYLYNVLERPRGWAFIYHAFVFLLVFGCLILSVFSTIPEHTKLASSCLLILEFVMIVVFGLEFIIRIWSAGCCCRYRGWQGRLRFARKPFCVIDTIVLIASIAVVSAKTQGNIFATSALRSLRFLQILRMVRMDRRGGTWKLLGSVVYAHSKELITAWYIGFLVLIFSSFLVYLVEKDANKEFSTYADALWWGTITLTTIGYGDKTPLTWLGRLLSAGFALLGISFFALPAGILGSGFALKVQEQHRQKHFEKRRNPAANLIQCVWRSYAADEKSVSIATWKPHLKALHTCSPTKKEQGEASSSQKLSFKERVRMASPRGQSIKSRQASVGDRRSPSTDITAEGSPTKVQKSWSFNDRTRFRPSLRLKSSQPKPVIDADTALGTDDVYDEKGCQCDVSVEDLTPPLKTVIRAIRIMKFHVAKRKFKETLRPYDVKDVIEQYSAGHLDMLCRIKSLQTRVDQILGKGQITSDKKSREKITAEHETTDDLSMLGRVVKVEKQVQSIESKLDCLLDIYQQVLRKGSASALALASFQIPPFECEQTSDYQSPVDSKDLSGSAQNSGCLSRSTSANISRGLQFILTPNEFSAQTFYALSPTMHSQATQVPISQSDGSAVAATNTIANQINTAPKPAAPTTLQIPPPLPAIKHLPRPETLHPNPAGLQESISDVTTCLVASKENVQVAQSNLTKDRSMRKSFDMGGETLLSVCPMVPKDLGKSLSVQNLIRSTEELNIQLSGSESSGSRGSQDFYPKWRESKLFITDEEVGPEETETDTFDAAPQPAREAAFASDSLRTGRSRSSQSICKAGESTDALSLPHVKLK

T3 sequence (O43526 whole entry W236L): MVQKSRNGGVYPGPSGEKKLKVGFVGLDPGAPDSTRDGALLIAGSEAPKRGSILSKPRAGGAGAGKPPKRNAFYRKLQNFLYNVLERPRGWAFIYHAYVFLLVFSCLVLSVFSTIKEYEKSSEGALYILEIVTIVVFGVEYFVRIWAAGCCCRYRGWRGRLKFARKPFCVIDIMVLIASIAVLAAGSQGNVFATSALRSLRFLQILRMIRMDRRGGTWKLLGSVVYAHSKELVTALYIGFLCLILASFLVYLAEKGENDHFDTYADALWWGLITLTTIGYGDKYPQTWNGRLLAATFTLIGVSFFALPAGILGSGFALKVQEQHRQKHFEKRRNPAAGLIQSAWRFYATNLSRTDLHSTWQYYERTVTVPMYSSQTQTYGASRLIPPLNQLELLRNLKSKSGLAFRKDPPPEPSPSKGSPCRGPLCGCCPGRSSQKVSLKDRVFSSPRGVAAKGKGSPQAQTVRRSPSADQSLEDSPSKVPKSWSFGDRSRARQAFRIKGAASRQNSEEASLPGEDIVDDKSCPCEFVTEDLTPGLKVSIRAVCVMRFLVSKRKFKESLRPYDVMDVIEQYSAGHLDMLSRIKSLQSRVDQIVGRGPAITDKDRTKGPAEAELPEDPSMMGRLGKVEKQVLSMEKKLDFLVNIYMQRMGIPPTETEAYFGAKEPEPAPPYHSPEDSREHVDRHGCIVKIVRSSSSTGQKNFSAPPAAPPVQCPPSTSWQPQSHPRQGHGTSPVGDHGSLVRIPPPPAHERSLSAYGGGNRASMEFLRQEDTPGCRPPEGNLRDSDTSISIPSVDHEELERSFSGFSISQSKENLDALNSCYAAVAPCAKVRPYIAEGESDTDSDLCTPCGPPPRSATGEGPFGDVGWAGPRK
T4 sequence (O43526 whole entry): as the sequence (O43526 whole entry W236L) above, with L236W counted along it

SMILES: C[C@H](NC(=O)/C=C/c1ccccc1F)c1ccc2c(c1)N(CC1CC1)CCO2 [(S)-2, (S)-N-[1-(4-Cyclopropylmethyl-3,4-dihydro-2H-benzo[1], [4]oxazin-6-yl)-ethyl]-3-(2-fluoro-phenyl)-acrylamide]
- EC50 (Kv7.4): 220 nM
- remaining activity at 10 µM (Kv7.1): 87.9 ± 2.2%
- IC50 (Kv7.2-W236L): 8100 nM
- EC50 (Kv7.2): 170 nM
- remaining activity at 10 µM (Kv7.5): 676 ± 83.5%

— PMC2788219, “The Acrylamide (S)-2 As a Positive and Negative Modulator of Kv7 Channels Expressed in Xenopus laevis Oocytes” (PLoS ONE, 2009)
